Measured values reported in ChEMBL document CHEMBL1123561, “Aryl diazo compounds and diazonium salts as potential irreversible probes of the gamma-aminobutyric acid receptor” (J Med Chem, 1987).
One block for each compound: values may come before it.

Assays:
[1] = target: T1, GABA-A receptor; anion channel (Rattus norvegicus) (UniProt O09028+P15431+P18506+P18508+P19969+P20236+P23574+P23576+P28471+P28473+P30191+P62813+P63079+P63138+Q91ZM7+Q9ES14); experiment: Inhibition of [3H]GABA binding to Gamma-aminobutyric acid (GABA-A) receptor isolated from rat brain homogenates at 5*10e-4 M
[2] = Half-life period was determined at 20 degree Celsius at UV lambdamax nm of 266 (16000); Stable; format: ADME
[3] = target: Gamma-aminobutyric acid receptor subunit gamma-1 (Rattus norvegicus) (UniProt P23574); experiment: Inhibition of [3H]GABA binding to Gamma-aminobutyric acid (GABA-A) receptor of rat brain homogenates at 5*10e-4 M
Sequence of Gamma-aminobutyric acid receptor subunit gamma-1 (Rattus norvegicus) (P23574 whole entry): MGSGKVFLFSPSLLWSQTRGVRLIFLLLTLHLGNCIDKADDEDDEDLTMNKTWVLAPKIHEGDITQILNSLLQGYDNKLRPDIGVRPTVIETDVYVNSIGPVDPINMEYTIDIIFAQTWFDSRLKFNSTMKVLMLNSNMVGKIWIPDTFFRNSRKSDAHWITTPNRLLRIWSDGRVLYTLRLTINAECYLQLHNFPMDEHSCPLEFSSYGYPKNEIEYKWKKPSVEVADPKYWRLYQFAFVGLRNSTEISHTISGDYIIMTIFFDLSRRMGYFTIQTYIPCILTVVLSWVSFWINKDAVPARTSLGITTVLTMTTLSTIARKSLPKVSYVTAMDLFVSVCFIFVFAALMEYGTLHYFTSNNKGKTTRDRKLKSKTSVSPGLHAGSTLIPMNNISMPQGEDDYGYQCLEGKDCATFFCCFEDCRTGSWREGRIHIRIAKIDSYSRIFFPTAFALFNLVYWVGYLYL

[4] = Half-life period was determined at 20 degree Celsius at UV lambdamax nm of 268 (16000); format: ADME
[5] = Half-life period was determined at 20 degree Celsius at UV lambdamax nm of 254 (15000), 341 (7800); format: ADME
[6] = Half-life period was determined at 20 degree Celsius at UV lambdamax nm of 255 (14000), 339 (7500); format: ADME
[7] = target: GABA-A receptor; anion channel; experiment: Inhibition of [3H]GABA binding to Gamma-aminobutyric acid (GABA-A) receptor of rat brain homogenates
[8] = target: T1, GABA-A receptor; anion channel (Rattus norvegicus); experiment: Inhibition of [3H]-GABA binding to Gamma-aminobutyric acid (GABA-A) receptor of rat brain homogenates at 10e-5 M
[9] = target: Gamma-aminobutyric acid receptor subunit gamma-1 (Rattus norvegicus, UniProt P23574); experiment: Inhibition of [3H]-GABA binding to Gamma-aminobutyric acid (GABA-A) receptor of rat brain homogenates (Unstable)
Sequence of Gamma-aminobutyric acid receptor subunit gamma-1 (P23574 whole entry): as above

[10] = Half-life period was determined at 20 degree Celsius at UV lambdamax nm of 310 (16600); format: ADME
[11] = Half-life period was determined at 20 degree Centigrade at UV lambdamax nm of 299 (8000); format: ADME
[12] = Half-life period was determined at 20 degree Centigrade at UV lambdamax nm of 313 (12000); format: ADME
[13] = Half-life period was determined at 20 degree Centigrade at UV lambdamax nm of 328 (9000); format: ADME
[14] = Half-life period was determined at 20 degree Celsius at UV lambdamax nm of 328 (12000); format: ADME
[15] = tested on: GABA-A receptor; anion channel; experiment: Inhibition of [3H]GABA binding to Gamma-aminobutyric acid (GABA-A) receptor of rat brain homogenates (unstable)
[16] = Half-life period was determined at 20 degree Celsius at UV lambdamax nm of 321 (6500); format: ADME
[17] = Half-life period was determined at 20 degree Celsius at UV lambdamax nm of 257 (14000), 350 (7900)stable; format: ADME
[18] = Half-life period was determined at 20 degree Celsius at UV lambdamax nm of 256 (16000), 349 (9000); format: ADME
[19] = Half-life period was determined at 20 degree Centigrade at UV lambdamax nm of 328; Unstable; format: ADME
[20] = Half-life period was determined at 20 degree Celsius at UV lambdamax nm of 258 (9800); Stable; format: ADME
[21] = Half-life period was determined at 20 degree Celsius at UV lambdamax nm of 258 (8500); format: ADME
[22] = Half-life period was determined at 20 degree Celsius at UV lambdamax nm of 345 (23000); Stable; format: ADME
[23] = Half-life period was determined at 20 degree Celsius at UV lambdamax nm of 304(7800); unstable; format: ADME
[24] = Half-life period was determined at 20 degree Celsius at UV lambdamax nm of 313 (23000); Stable; format: ADME
[25] = Half-life period was determined at 20 degree Celsius at UV lambdamax nm of 348 (44000); Stable; format: ADME
[26] = Half-life period was determined at 20 degree Celsius at UV lambdamax nm of 323 (23000); Stable; format: ADME
[27] = Half-life period was determined at 20 degree Celsius at UV lambdamax nm of 316 (22000); format: ADME
[28] = Half-life period was determined at 20 degree Celsius at UV lambdamax nm of 319 (22000); format: ADME
[29] = Half-life period was determined at 20 degree Centigrade at UV lambdamax nm of 306 (24000); format: ADME
[30] = Half-life period was determined at 20 degree Celsius at UV lambdamax nm of 313 (22000); format: ADME
[31] = Half-life period was determined at 20 degree Celsius at UV lambdamax nm of 314 (24000); stable; format: ADME
[32] = Half-life period was determined at 20 degree Celsius at UV lambdamax nm of 306 (24000); Stable; format: ADME
[33] = Half-life period was determined at 20 degree Celsius at UV lambdamax nm of 346 (44000); Stable; format: ADME
[34] = Half-life period was determined at 20 degree Celsius at UV lambdamax nm of 260 (9600), 350 (5000); Stable; format: ADME
[35] = Half-life period was determined at 20 degree Celsius at UV lambdamax nm of 390 (5900); Stable; format: ADME

- inhibition [1]: 0%
Structure (SMILES): Nc1ncc[nH]1

Structure (SMILES): N#[N+]c1ccc(S(=O)(=O)[O-])cc1
- T1/2 [2]: Stable
- inhibition [3]: < 50%
- half-life [4]: 6 h

- inhibition [1]: 20%
Structure (SMILES): Nc1nccn1CC(=O)O

- inhibition [1]: < 50%
Structure (SMILES): Nc1nc(CC(N)C(=O)O)c[nH]1 (stereo not given)

- inhibition [1]: 20%
Structure (SMILES): NCc1ccc[n+]([O-])c1

- half-life [5]: 22 h
- half-life [6]: 16 h
- IC50 [7]: 10 µM
Structure (SMILES): N#[N+]c1cccc2cccc(S(=O)(=O)[O-])c12

- inhibition [8]: 25%
Structure (SMILES): Nc1nc(CC(=O)O)cs1

- inhibition [3]: < 50%
Structure (SMILES): Nc1ncc(CC(=O)O)s1

Structure (SMILES): N#[N+]c1nccn1CC(=O)[O-]
- IC50 [9]: Unstable
- half-life [10]: 12 h
- half-life [11]: 3 h
- half-life [12]: 0.367 h

Structure (SMILES): N#[N+]c1nc(CC(=O)[O-])cs1
- half-life [13]: 0.417 h
- half-life [14]: 48 h
- IC50 [15]: Unstable
- half-life [16]: 43 h

- T1/2 [17]: Stable
- half-life [18]: 0.75 h
- IC50 [7]: < 10 µM
Structure (SMILES): N#[N+]c1ccc2cccc(S(=O)(=O)[O-])c2c1

Structure (SMILES): N#[N+]c1cccc(S(=O)(=O)[O-])c1
- IC50 [7]: 5 µM

Structure (SMILES): N#[N+]c1ncc(CC(=O)[O-])s1
- T1/2 [19]: Unstable
- IC50 [15]: Unstable

Structure (SMILES): N#[N+]c1cccc(C(=O)[O-])c1
- inhibition [1]: 30%
- T1/2 [20]: Stable
- half-life [21]: 1.33 h

Structure (SMILES): N#[N+]c1cc[n+]([O-])cc1
- T1/2 [22]: Stable
- T1/2 [23]: Unstable
- IC50 [15]: Unstable

Structure (SMILES): [N-]=[N+]=C1C=CC(=O)C=C1
- inhibition [1]: 15%
- T1/2 [24]: Stable
- T1/2 [25]: Stable

- inhibition [8]: 30%
Structure (SMILES): Nc1nc(CC(=O)O)c[nH]1

Structure (SMILES): N#[N+]c1nc(CC(=O)[O-])c[nH]1
- T1/2 [26]: Stable
- half-life [27]: 60 h
- IC50 [7]: 70 µM
- half-life [28]: 11 h

Structure (SMILES): N#[N+]C1N=CC[N-]1 (stereo not given)
- half-life [29]: 48 h
- half-life [30]: 8 h
- T1/2 [31]: Stable
- IC50 [7]: 500 µM

Structure (SMILES): [N-]=[N+]=C1C=CC(=O)C(S(=O)(=O)O)=C1
- inhibition [1]: 15%
- T1/2 [32]: Stable
- T1/2 [33]: Stable

Structure (SMILES): [N-]=[N+]=C1C=C(S(=O)(=O)O)C=CC1=O
- inhibition [1]: 15%
- T1/2 [34]: Stable
- T1/2 [35]: Stable
